Laboratory results: US20260138990A1, “TRICYCLIC FUSED IMIDAZOLE COMPOUNDS AS CD38 MODULATORS AND USES THEREOF” (AEOVIAN PHARMACEUTICALS, INC., priority 2023, published 2026)
pIC50: −log10 of the molar value.

Key:
human CD38 = biological target: T1, human CD38 (Homo sapiens, UniProt P28907); experiment: NAD+ cyclase activity assay with human recombinant CD38 protein (ε-NAD fluorescence); type: biochemical; conditions: 1.9 nM human CD38, substrate ε-NAD, 30 min preincubation, fluorescence 300/410 nm
T1 construct: purchased Bio-Techne GmbH AVI2404
T1 sequence (P28907 1-300): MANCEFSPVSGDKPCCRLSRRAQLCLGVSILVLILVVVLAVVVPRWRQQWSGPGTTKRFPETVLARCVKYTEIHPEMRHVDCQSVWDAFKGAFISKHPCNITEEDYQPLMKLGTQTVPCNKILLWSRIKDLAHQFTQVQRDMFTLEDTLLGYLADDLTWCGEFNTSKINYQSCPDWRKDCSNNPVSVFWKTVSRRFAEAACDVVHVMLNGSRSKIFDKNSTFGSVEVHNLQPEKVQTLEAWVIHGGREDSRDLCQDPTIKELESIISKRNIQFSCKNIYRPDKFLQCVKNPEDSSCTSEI
Outline: (§1)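 Twelve-point threefold compound dilutions were given 30 min at room temperature with 0.6 nM mouse or 1.9 nM human CD38 before […] ε-NAD was added (pH 7.5 HEPES/sucrose/Tween buffer). The rate came from the linear-phase slope of ex 300/em 410 nm fluorescence against vehicle and no-CD38 controls.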

mouse CD38 = biological target: T2, mouse CD38 (Mus musculus, UniProt P56528); experiment: NAD+ cyclase activity assay with mouse recombinant CD38 protein (ε-NAD fluorescence); type: biochemical; conditions: 0.6 nM mouse CD38, substrate ε-NAD, 30 min preincubation, fluorescence 300/410 nm
T2 construct: purchased Bio-Techne GmbH 4947-AC
T2 sequence (P56528 1-304): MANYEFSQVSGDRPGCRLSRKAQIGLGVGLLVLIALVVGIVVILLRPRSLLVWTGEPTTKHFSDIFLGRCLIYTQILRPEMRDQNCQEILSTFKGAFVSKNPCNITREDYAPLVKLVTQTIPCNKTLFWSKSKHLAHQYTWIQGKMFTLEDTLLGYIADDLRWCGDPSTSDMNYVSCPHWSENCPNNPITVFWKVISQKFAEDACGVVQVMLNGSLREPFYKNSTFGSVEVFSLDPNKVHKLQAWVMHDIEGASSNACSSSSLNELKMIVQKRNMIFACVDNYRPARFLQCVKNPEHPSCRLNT
Outline: as §1

Row | Compound | pIC50 (human CD38) | pIC50 (mouse CD38)
1 | O=C(N[C@H]1CC[C@@H](OC2CC(F)(F)C2)CC1)c1cc(F)c2c(c1)-c1cncn1CCO2 [Compound 167A, N-((1s,4s)-4-(3,3-Difluorocyclobutoxy)cyclohexyl)-8-fluoro-5,6-dihydrobenzo[f]imidazo[1,5-d][1,4]oxazepine-10-carboxamide] | 6.00 to 7.00 | 7.00 to 8.00
2 | CC(C)(CO[C@H]1CC[C@@H](NC(=O)c2cc(F)c3c(c2)-c2cncn2CCO3)CC1)C(F)(F)F [Compound 168A, 8-Fluoro-N-((1s,4s)-4-(3,3,3-trifluoro-2,2-dimethylpropoxy)cyclohexyl)-5,6-dihydrobenzo[f]imidazo[1,5-d][1,4]oxazepine-10-carboxamide] | 6.00 to 7.00 | < 7.00
3 | CC1(NC(=O)c2cc(F)c3c(c2)-c2cncn2CCO3)CCS(=O)(=O)C1 (stereo not drawn) [Compound 169A, 8-Fluoro-N-(3-methyl-1,1-dioxidotetrahydrothiophen-3-yl)-5,6-dihydrobenzo[f]imidazo[1,5-d][1,4]oxazepine-10-carboxamide] | 7.00 to 7.52 | 7.00 to 8.00
4 | CC(C)(CO[C@H]1CC[C@H](NC(=O)c2cc(Cl)c3c(c2)-c2cncn2CCO3)CC1)C(F)(F)F [Compound 170A, 8-Chloro-N-((1r,4r)-4-(3,3,3-trifluoro-2,2-dimethylpropoxy)cyclohexyl)-5,6-dihydrobenzo[f]imidazo[1,5-d][1,4]oxazepine-10-carboxamide] | 7.00 to 7.52 | 8.00 to 9.00
5 | CC(C)(CO[C@H]1CC[C@@H](NC(=O)c2cc(Cl)c3c(c2)-c2cncn2CCO3)CC1)C(F)(F)F [Compound 171A, 8-Chloro-N-((1s,4s)-4-(3,3,3-trifluoro-2,2-dimethylpropoxy)cyclohexyl)-5,6-dihydrobenzo[f]imidazo[1,5-d][1,4]oxazepine-10-carboxamide] | < 6.00 | < 7.00
6 | O=C(N[C@H]1CC[C@H](OC2CC(F)(F)C2)CC1)c1cc(Cl)c2c(c1)-c1cncn1CCO2 [Compound 172A, N-((1r,4r)-4-(3,3-difluorocyclobutoxy)cyclohexyl)-8-chloro-5,6-dihydrobenzo[f]imidazo[1,5-d][1,4]oxazepine-10-carboxamide] | > 7.52 | 8.00 to 9.00
7 | O=C(N[C@H]1CC[C@@H](OC2CC(F)(F)C2)CC1)c1cc(Cl)c2c(c1)-c1cncn1CCO2 [Compound 173A, N-((1s,4s)-4-(3,3-difluorocyclobutoxy)cyclohexyl)-8-chloro-5,6-dihydrobenzo[f]imidazo[1,5-d][1,4]269xazepane-10-carboxamide] | 6.00 to 7.00 | 7.00 to 8.00
8 | C[C@@H]1CCC[C@H](C)[C@H]1NC(=O)c1cc(F)c2c(c1)-c1cncn1CCO2 [Compound 176A, N-(trans-2-trans-6-Dimethylcyclohexyl)-8-fluoro-5,6-dihydrobenzo[f]imidazo[1,5-d][1,4]oxazepine-10-carboxamide] | > 7.52 | 8.00 to 9.00
9 | C[C@@H]1CCC[C@H](C)[C@@H]1NC(=O)c1cc(F)c2c(c1)-c1cncn1CCO2 [Compound 178A, N-(cis-2-cis-6-Dimethylcyclohexyl)-8-fluoro-5,6-dihydrobenzo[f]imidazo[1,5-d][1,4]oxazepine-10-carboxamide] | > 7.52 | 8.00 to 9.00
10 | N-((1r,4r)-4-((1-(Trifluoromethyl)cyclopropyl)methoxy)cyclohexyl)-5,6-dihydrobenzo[f]imidazo[1,5-d][1,4]oxazepine-10-carboxamide [Compound 142A] | > 7.52 | 8.00 to 9.00
11 | N-((1r,4r)-4-((Tetrahydrofuran-2-yl)methoxy)cyclohexyl)-5,6-dihydrobenzo[f]imidazo[1,5-d][1,4]oxazepine-10-carboxamide [Compound 76A] | > 7.52 | 8.00 to 9.00
12 | N-((1s,4s)-4-((Tetrahydrofuran-2-yl)methoxy)cyclohexyl)-5,6-dihydrobenzo[f]imidazo[1,5-d][1,4]oxazepine-10-carboxamide [Compound 75A] | < 6.00 | < 7.00
